Experimental data from ChEMBL document CHEMBL1201862, “PubChem BioAssay data set” (2004).
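Five concentrations, 48 hours, 96-well plates. Here, GI50 denotes the concentration required for 50% inhibition of growth.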 The source made the active and inactive calls. Rule as the data show it: active = GI50 up to about 1.1 µM and inactive = higher.

Experiments:
Assay in all cases: NCI-60 cell line screen, 48 h
786-0 = test system: 786-0
HCT-15 = test system: HCT-15
HL-60 = test system: HL-60
HOP-92 = test system: HOP-92
Hs-578T = test system: Hs-578T
KM12 = test system: KM12
LOX IMVI = test system: LOX IMVI
MDA-MB-435 = test system: MDA-MB-435
MOLT-4 = test system: MOLT-4
NCI-H460 = test system: NCI-H460
OVCAR-8 = test system: OVCAR-8
RPMI-8226 = test system: RPMI-8226
RXF 393 = test system: RXF 393
SF-539 = test system: SF-539
SK-OV-3 = test system: SK-OV-3
SN12C = test system: SN12C
SNB-19 = test system: SNB-19
SW-620 = test system: SW-620
UACC-62 = test system: UACC-62
HCC 2998 = test system: HCC 2998

SMILES	GI50 (786-0)	GI50 (HCT-15) [µM]	GI50 (HL-60)	GI50 (HOP-92)	GI50 (Hs-578T)	GI50 (KM12)	GI50 (LOX IMVI)	GI50 (MDA-MB-435)	GI50 (MOLT-4)	GI50 (NCI-H460)	GI50 (OVCAR-8)	GI50 (RPMI-8226)	GI50 (RXF 393)	GI50 (SF-539)	GI50 (SK-OV-3)	GI50 (SN12C)	GI50 (SNB-19)	GI50 (SW-620)	GI50 (UACC-62)	GI50 (HCC 2998)
O=C1C(O)=C(C(C2=C(O)C(=O)c3ccccc3C2=O)c2ccc(Cl)cc2)C(=O)c2ccccc21	3.33 µM (inactive)	9.12	1.66 µM (inactive)	14.3 µM (inactive)	14.7 µM (inactive)	8.97 µM (inactive)	2.64 µM (inactive)	1.83 µM (inactive)	4.56 µM (inactive)	14 µM (inactive)	8.75 µM (inactive)	9.86 µM (inactive)	7.13 µM (inactive)	18 µM (inactive)	17.7 µM (inactive)	1.71 µM (inactive)	19.5 µM (inactive)	4.69 µM (inactive)	9.75 µM (inactive)	
COC(=O)C(NC(=O)C12CCC(C)(C(=O)O1)C2(C)C)c1cc(C(C)(C)C)c(O)c(C(C)(C)C)c1 (stereo unspecified)	> 100 µM (inactive)	91.2	4.95 µM (inactive)	> 100 µM (inactive)	94 µM (inactive)	23.5 µM (inactive)	> 100 µM (inactive)	> 100 µM (inactive)	42.2 µM (inactive)		> 100 µM (inactive)	14.7 µM (inactive)	83.2 µM (inactive)	> 100 µM (inactive)	> 100 µM (inactive)		> 100 µM (inactive)	77.3 µM (inactive)	> 100 µM (inactive)	
O=C(CSCC(=O)N/N=C\c1cc(Cl)cc(Cl)c1O)N/N=C\c1cc(Cl)cc(Cl)c1O	6.46 µM (inactive)	2.99	2.75 µM (inactive)	5.73 µM (inactive)	2.08 µM (inactive)	6.1 µM (inactive)	1.38 µM (inactive)	8.04 µM (inactive)	1.63 µM (inactive)	14.9 µM (inactive)	2.1 µM (inactive)		20.5 µM (inactive)	2.58 µM (inactive)	8.55 µM (inactive)	4.33 µM (inactive)	16.7 µM (inactive)	3.79 µM (inactive)	3.64 µM (inactive)	
COC(=O)C1CCC(=O)N1C(c1cc(OC)c(OC)c(OC)c1)c1cccc2ccccc12 (stereo unspecified)	> 100 µM (inactive)	71.1	11.7 µM (inactive)	38.2 µM (inactive)	6.44 µM (inactive)	> 100 µM (inactive)	> 100 µM (inactive)	63.2 µM (inactive)	13.8 µM (inactive)	> 100 µM (inactive)	> 100 µM (inactive)	76.6 µM (inactive)		> 100 µM (inactive)	25.4 µM (inactive)	> 100 µM (inactive)	> 100 µM (inactive)	> 100 µM (inactive)	45 µM (inactive)	
Cn1c2ccccc2c2nc3ccccc3c(Cl)c21	> 100 µM (inactive)	> 100	> 100 µM (inactive)	> 10 µM (inactive)	> 100 µM (inactive)	> 100 µM (inactive)	> 100 µM (inactive)	> 100 µM (inactive)	> 100 µM (inactive)	> 100 µM (inactive)	> 100 µM (inactive)	> 100 µM (inactive)	37.9 µM (inactive)	> 100 µM (inactive)	35.9 µM (inactive)	> 100 µM (inactive)	> 100 µM (inactive)	> 100 µM (inactive)	92.5 µM (inactive)	
O=P1(O)c2ccccc2CSCc2ccccc21	> 100 µM (inactive)	> 100	> 100 µM (inactive)	> 100 µM (inactive)	> 100 µM (inactive)	> 100 µM (inactive)	> 100 µM (inactive)	> 100 µM (inactive)	> 100 µM (inactive)	> 100 µM (inactive)	> 100 µM (inactive)		> 100 µM (inactive)	> 100 µM (inactive)	> 100 µM (inactive)	> 100 µM (inactive)	> 100 µM (inactive)	> 100 µM (inactive)	> 100 µM (inactive)	> 100 µM (inactive)
C[C@H](c1ccccc1)n1c(N)c(-c2nc3ccccc3s2)c2ccc([N+](=O)[O-])cc2c1=O	9.29 µM (inactive)	4.76	0.327 µM (active)	1.59 µM (inactive)	2.58 µM (inactive)	4.45 µM (inactive)	4.46 µM (inactive)	9.66 µM (inactive)	2.32 µM (inactive)	4.09 µM (inactive)	3.83 µM (inactive)	0.324 µM (active)		16.9 µM (inactive)	8.99 µM (inactive)	8.32 µM (inactive)	3.49 µM (inactive)	4.14 µM (inactive)	4.33 µM (inactive)	4.4 µM (inactive)
CC(C)(C)OC(=O)NCCC1CNc2ccccc21 (stereo unspecified)	> 100 µM (inactive)	> 100		93.1 µM (inactive)	> 100 µM (inactive)	> 100 µM (inactive)		> 100 µM (inactive)	> 100 µM (inactive)	> 100 µM (inactive)	> 100 µM (inactive)	> 100 µM (inactive)	> 100 µM (inactive)		> 100 µM (inactive)		> 100 µM (inactive)	> 100 µM (inactive)	> 100 µM (inactive)	> 100 µM (inactive)
COc1cccc(/N=N/C(=NNC(=O)c2ccc(C)cc2)c2ccc(N(C)C)cc2)c1	> 100 µM (inactive)	> 100	> 100 µM (inactive)	> 100 µM (inactive)	> 100 µM (inactive)	> 100 µM (inactive)	> 100 µM (inactive)	21.1 µM (inactive)	> 100 µM (inactive)	> 100 µM (inactive)	> 100 µM (inactive)	> 100 µM (inactive)		> 100 µM (inactive)	> 100 µM (inactive)	> 100 µM (inactive)	> 100 µM (inactive)	> 100 µM (inactive)		> 100 µM (inactive)
Nc1nc(-c2ccccc2)cc(-c2ccc(OCc3ccccc3)cc2O)n1	40.9 µM (inactive)	32.2		38.7 µM (inactive)	37.1 µM (inactive)	34.4 µM (inactive)	33.9 µM (inactive)	34 µM (inactive)	48.4 µM (inactive)	40.4 µM (inactive)	29.6 µM (inactive)	22.7 µM (inactive)	27.5 µM (inactive)	26 µM (inactive)		76.9 µM (inactive)	50.2 µM (inactive)	39.4 µM (inactive)	64.7 µM (inactive)	34.4 µM (inactive)
COc1cc2ccnc3c2c(c1O)N(C)C=C3	7.19 µM (inactive)	15		21.2 µM (inactive)	18.7 µM (inactive)	19.4 µM (inactive)	8.39 µM (inactive)	11.6 µM (inactive)	4.26 µM (inactive)	24.9 µM (inactive)	9.53 µM (inactive)	4.18 µM (inactive)	14.3 µM (inactive)		13.4 µM (inactive)	13.5 µM (inactive)	25.5 µM (inactive)	12 µM (inactive)	9.93 µM (inactive)	23 µM (inactive)
COc1cc(O)c(C(=O)/C=C/c2ccc(O)cc2)cc1Oc1ccc(/C=C/C(=O)c2ccc(O)cc2O)cc1 [RHUSCHALCONE III]	8.73 µM (inactive)	8.85	10.4 µM (inactive)	11.4 µM (inactive)	14.4 µM (inactive)	6.75 µM (inactive)	8.45 µM (inactive)	8.77 µM (inactive)	11.3 µM (inactive)	11.6 µM (inactive)	9.02 µM (inactive)	6.79 µM (inactive)	8.2 µM (inactive)	8.89 µM (inactive)	8.36 µM (inactive)	8.81 µM (inactive)	12.9 µM (inactive)	11.2 µM (inactive)	8.61 µM (inactive)	
Cc1cc(Cc2c(F)c(F)c(Cc3cc(C)no3)c(F)c2F)on1	38.8 µM (inactive)	> 100	> 100 µM (inactive)	29 µM (inactive)	29.9 µM (inactive)		80.4 µM (inactive)	> 100 µM (inactive)	> 100 µM (inactive)		83.9 µM (inactive)	> 100 µM (inactive)	33 µM (inactive)	47.6 µM (inactive)	38.5 µM (inactive)	> 100 µM (inactive)	36.7 µM (inactive)		> 100 µM (inactive)	
CNC(=O)OCCN1c2ccccc2Sc2ccccc21	> 100 µM (inactive)	> 100	> 100 µM (inactive)	50.4 µM (inactive)	> 100 µM (inactive)	> 100 µM (inactive)	91.6 µM (inactive)	> 100 µM (inactive)	> 100 µM (inactive)	86.7 µM (inactive)	> 100 µM (inactive)		19.2 µM (inactive)	> 100 µM (inactive)	> 100 µM (inactive)	> 100 µM (inactive)	> 100 µM (inactive)	> 100 µM (inactive)	4.99 µM (inactive)	> 100 µM (inactive)
CCCCCCCCCCCCCCCCCCNc1ccn(C2OC(CO)C(OP(=O)(O)OCC3CCC(n4ccc(N)nc4=O)O3)C2O)c(=O)n1 (stereo unspecified)	> 100 µM (inactive)	40.3	17.1 µM (inactive)	> 100 µM (inactive)	> 100 µM (inactive)	36.3 µM (inactive)	32.3 µM (inactive)	> 100 µM (inactive)	3.9 µM (inactive)	55.8 µM (inactive)	> 100 µM (inactive)		15.6 µM (inactive)	32.7 µM (inactive)	> 100 µM (inactive)	> 100 µM (inactive)	> 100 µM (inactive)	46.3 µM (inactive)	> 100 µM (inactive)	
